Experimental data published in paper PMC11720353, “Clove Essential Oil as a Source of Antitumoral Compounds Capable of Crossing the Blood–Brain Barrier: A Focus on the Effects of β-Caryophyllene and Eugenol in a Glioblastoma Cell Line” (International Journal of Molecular Sciences, 2024).

Key:
Assay type in all cases: cell-based, human
U87 cells [1] = experiment: Metabolic activity (Alamar blue) assay and HSA synergy analysis; details: EU 2.5, 25, 200 µM or BCA 1.25, 12.5, 125 µM alone, 24-72 h
Procedure: To evaluate the cytotoxic/antiproliferative potential of BCA and/or EU, the U87 and HMC3 cells were seeded, in triplicate, into 48-well culture plates (4 × 10^4 cells/well). After 24 h, the medium was replaced, and the cells were treated either with the vehicle (ethanol) or with different concentrations of EO single molecules, diluted in ethanol alone ([…]; BCA: 1.25 µM, µM, 125 µM) or in combination (EU 2 µM and BCA 1.25 µM; EU 20 µM and BCA 12.5 µM; and EU 200 µM and BCA 125 µM) in order to evaluate the possible synergistic effects. The final concentration of ethanol in the cell medium was kept lower than 0.1%. Non-treated cells were considered the control condition. Metabolic activity was evaluated using a modified Alamar blue® assay, as previously described. […] After 2 h of incubation at 5% CO2 and 37 °C, the absorbance was read at 570 and 600 nm in a BioTeck (BioTek Instruments, Inc., Winooski, VT, USA). The absorbance results were obtained using the Gen5 program. The metabolic activity was then calculated by the following equation: Metabolicactivity %=A570−A600 oftreated cells/A570−A600 ofcontrol cells×100 All data were analyzed using the software GraphPad Prism v.9.00 (GraphPad Software, San Diego, CA, USA). All in vitro experiments were performed in triplicate, and the acquired results were expressed as means ± SEM. […]

U87 cells [2] = experiment: Clonogenic cell survival assay; details: EU 200 µM, BCA 125 µM, alone or in combination, 14 days
Procedure: An evaluation of the antiproliferative effect via clonogenic assay on the tumoral U87 cells was performed using an adapted protocol from the previously described procedure. Briefly, U87 cells (0.8 × 10^3 cells/well) were seeded into 6-well plates and incubated for 24 h. After the incubation, based on the results obtained from the cell viability assay and synergistic score, the cells were treated either with EO single compounds diluted in ethanol alone (EU 200 µM and BCA 125 µM) or in combination for 14 days with the media being changed every 2/3 days. The cells without treatment were considered the control condition. Following the incubation, the cells were washed with PBS, fixed with paraformaldehyde (PFA) and stained with 0.1% crystal violet solution. The number of colonies was counted by microscopy, and the surviving fraction (SF) was calculated as the mean colonies/number of cells seeded.

HMC3 cells [3] = experiment: Cell death assay (Annexin V/PI, flow cytometry); details: EU 200 µM, BCA 125 µM, alone or in combination, 24 h
Procedure: HMC3 and U87 cells were seeded in duplicate into 12-well plates (10 × 10^4 cells/well). After 24 h of incubation at 37 °C and 5% CO2, the medium was replaced, and the cells were treated either with EU (200 µM) or BCA (125 µM), alone and in combination (EU 200 µM + BCA 125 µM). Following the 24 h treatment, the cells were co-stained with AV-APC and PI according to the manufacturer’s protocol (Biolegend, San Diego, CA, USA). Briefly, the cells were resuspended in binding buffer (100 µL) and incubated with AV-APC solution (5 µL) and PI solution (2 µL) for 15 min at room temperature. Then, the cells were diluted in a binding buffer (400 µL). A six-parameter, four-color FACSCalibur flow cytometer (Becton Dickinson, San Jose, CA, USA) was used, and at least 10,000 events were collected by acquisition using CellQuest software (Becton Dickinson, San Jose, CA, USA). The results were analyzed with the Paint-a-Gate software and expressed in percentage (%).

HMC3 cells [4] = experiment: Quantitative real-time PCR of mRNA levels; details: 24 h
Procedure: (§1) An analysis of the genes involved in angiogenesis, tumor progression and proliferation were performed. In particular, we analyzed the genes involved in the cell cycle and in three different apoptotic pathways: B-cell lymphoma-2 (BCL2), Bcl-2-like protein 1 (BCL2L1), Bcl-2 Associated X-protein (BAX), BCL2 Antagonist/Killer 1 (BAK-1) and Caspase 9 (CASP9) as the key genes of the intrinsic mitochondrial pathway; and Phosphatase and tensin homolog (PTEN), Tumor protein p53 (TP53), Murine double minute 2 (MDM2), Cyclin-dependent kinase 4 (CDK4) and Vascular endothelial growth factor A (VEGFA) mRNA levels were assessed by quantitative real-time PCR (qRT-PCR). HMC3 and U87 cells were seeded with a density of 1 × 10^6 cells per well and incubated for 24 h at 37 °C and 5% CO2. Thereafter, the cells were treated either with EU (200 μM) or BCA (125 μM) alone and in combination (EU 200 μM + BCA 125 μM). Total RNA was extracted using the TripleXtractor solution (GRISP, Lisbon, Portugal) according to the manufacturer's protocol. RNA was converted into cDNA through the […] Synthesis Supermix (GRISP, Lisbon, Portugal). Each optimized reaction was performed using […] SYBR Green Mastermix 2X with […], Lisbon, Portugal) and subjected to the amplification protocol described by the manufacturer, using a melting temperature of 60 °C. The relative gene expression was determined by the 2^-ΔΔCt method and normalized on Glyceraldehyde-3-Phosphate Dehydrogenase (GAPDH), which was the endogenous reference and relative to the untreated cells (control condition).

U87 cells [5] = experiment: Quantitative real-time PCR of mRNA levels; details: 24 h
Procedure: as §1

HMC3 cells [6] = experiment: Inflammatory cytokines in conditioned media (Luminex/BioPlex); details: EU 200 µM, BCA 125 µM, alone or in combination, 24 h
Procedure: (§2) In order to determine the impact of BCA and/or EU on inflammatory cytokines levels, cytokine expression analyses (L-6, IL-4, IL-8 and TNF-α) were performed using a customized detection panel purchased from Bio-techne (Minneapolis, MN, USA). The cells were seeded, in triplicate, into 24-well culture plates (8 × 10^4 cells/well). After 24 h, the medium was replaced and the cells were treated either with the vehicle (ethanol) or with different concentrations of EO single compounds alone (EU: 2 µM, 20 µM, 200 µM; and BCA: 1.25 µM, 12.5 µM, 125 µM) or in combination (EU 2 µM + BCA 1.25 µM; EU 20 µM + BCA 12.5 µM; and EU 200 µM + BCA 125 µM). The final concentration of ethanol in the cell medium was kept lower than 0.1%. The ethanol 0.1%-treated cells were considered the control condition. After the 24 h treatment, supernatants were collected and centrifuged at 4,000× g for 10 min, and the samples were analyzed with the BioPlex 200 instrument (BioRad®, Hercules, CA, USA) following the manufacturer’s protocol.

U87 cells [7] = experiment: as above; details: EU 200 µM, BCA 125 µM, alone or in combination, 24 h
Procedure: as §2

[8] = EU 200 µM, BCA 125 µM, alone or in combination

In the case of `C=C1CC/C=C(\C)CC[C@@H]2[C@@H]1CC2(C)C` [BCA, β-Caryophyllene], the “reduction in metabolic activity, single compounds” value (U87 cells [1]) is reported as “No reduction”, the “decrease of clonal growth / colony formation with respect to control” value (U87 cells [2]) is reported as −63.8% and the cell viability (HMC3 cells [3]) is reported as “did not affect”. For the same molecule, the “PTEN mRNA expression, change vs control” value (HMC3 cells [4]; EU 200 µM or BCA 125 µM) was “no effect”, the “BAK1 mRNA expression, change vs control” value (HMC3 cells [4]; [8]) was “+59.8%” and the “BCL2 mRNA expression, change vs control” value (HMC3 cells [4]; [8]) was −56.2%. The “CDK4 mRNA levels, change vs control” value (HMC3 cells [4]; [8]) was “no effects”, the “MDM2 mRNA expression, change vs control” value (HMC3 cells [4]; [8]) was “+34.2%” and the “TP53 mRNA expression, change vs control” value (HMC3 cells [4]; [8]) was “+155.5%”. The “VEGFA mRNA expression, change vs control” value (HMC3 cells [4]; [8]) was −57%, the “PTEN mRNA expression, change vs control” value (U87 cells [5]; EU 200 µM or BCA 125 µM) was “+171.8%” and the “BAK1 mRNA expression, change vs control” value (U87 cells [5]; [8]) was “+129.6%”. For the same molecule, the “BAX mRNA expression, change vs control” value (U87 cells [5]; [8]) was “+35.0%”, the “BCL2L1 mRNA expression, change vs control” value (U87 cells [5]; [8]) was −42.2% and the “BCL2 mRNA expression, change vs control” value (U87 cells [5]; [8]) was −54.8%. The “CASP9 mRNA expression, change vs control” value (U87 cells [5]; [8]) was “+98.5%”, the “MDM2 mRNA expression, change vs control” value (U87 cells [5]; [8]) was −49.3% and the “TP53 mRNA expression, change vs control” value (U87 cells [5]; [8]) was “+506.4%”. For the same molecule, the “VEGFA mRNA expression, change vs control” value (U87 cells [5]; [8]) was −56.5%, the “CDK4 mRNA levels, change vs control” value (U87 cells [5]; EU 200 µM, BCA 125 µM, alone or in combination, normalized to GAPDH) was “no effects” and the “IL-4 levels, change vs control” value (HMC3 cells [6]) was −52.2%. For the same molecule, the “IL-6 secretion, change vs control” value (HMC3 cells [6]) was −55.5%, the “IL-8 secretion, change vs control” value (HMC3 cells [6]) was −38.0% and the “TNF-α secretion, change vs control” value (HMC3 cells [6]) was −49.7%. The “IL-4 levels, change vs control” value (U87 cells [7]) was −29.3%, the “IL-6 secretion, change vs control” value (U87 cells [7]) was “None of the treatments modulated” and the “IL-8 secretion, change vs control” value (U87 cells [7]) was “unaffected”.
